# Assay results reported in publication PMC3681751, “Identification of a Novel Antimicrobial Peptide from Human Hepatitis B Virus Core Protein Arginine-Rich Domain (ARD)” (PLoS Pathogens, 2013).
# Like-named read-outs stand apart in the source and are kept apart here.
# Key:
# [1] = test system: P. aeruginosa (ATCC 27853); type: cell-based, Pseudomonas aeruginosa
# Protocol: (§1) The antimicrobial activities of HBc ARD peptides were tested using a number of bacterial strains from ATCC, including Pseudomonas aeruginosa Migula strain (ATCC 27853, ampicillin-resistant), Pseudomonas aeruginosa Migula strain (ATCC 9027, ampicillin-resistant), Klebsiella pneumoniae strain (ATCC 17593), Escherichia coli strain (ATCC 25922), Staphylococcus aureus subsp. strain (ATCC 25923, methicillin-resistant), Staphylococcus aureus subsp. strain (ATCC 29213, methicillin-resistant), Staphylococcus aureus subsp. strain (ATCC 19636, methicillinresistant), and Candida albicans strain (ATCC 10231).
# (§2) All peptides were purchased from Yao-Hong Biotechnology Inc. (Taipei, Taiwan). Vendors provided data of peptide characterizations, including HPLC and Mass (data not shown). Antimicrobial activity was determined as described with some modifications as detailed below. Bacteria were grown overnight in Mueller–Hinton broth (Difco) at 37°C, and during the mid-logarithmic phase, bacteria were diluted to 10^6 CFU (colony formation unit)/ml in phosphate buffer (10 mM sodium phosphate and 50 mM sodium chloride, pH 7.2). Peptides were serially diluted in the same buffer. Fifty microliter (µl) of bacteria was mixed with fifty µl of peptides at varying concentrations followed by incubation at 37°C for 3 hours without shaking. At the end of incubation, bacteria were placed on Mueller-Hinton broth agar plates, and allowed growth at 37°C overnight for measurement of minimal bactericidal concentration (MBC). […] All peptides were tested in triplicate.
# [2] = test system: P. aeruginosa (ATCC 9027); type: cell-based, Pseudomonas aeruginosa
# Protocol: as §1, §2
# [3] = test system: K. pneumonia (ATCC 13884); type: cell-based, Klebsiella pneumoniae
# E. coli (ATCC 25922) = type: cell-based, Escherichia coli
# Protocol: as §1, §2
# S. aureus (ATCC 19636) = type: cell-based, Staphylococcus aureus
# Protocol: as §1, §2
# S. aureus (ATCC 25923) = type: cell-based, Staphylococcus aureus
# Protocol: as §1, §2
# S. aureus (ATCC 29213) = type: cell-based, Staphylococcus aureus
# Protocol: as §1, §2
# [4] = test system: tested bacteria and fungi; type: cell-based; conditions: summary over the tested bacteria of Table 1
# Protocol: as §1, §2
# [5] = ampicillin-resistant strain, 3 h at 37°C in phosphate buffer pH 7.2, triplicate
# [6] = 3 h at 37°C in phosphate buffer pH 7.2, triplicate
# [7] = methicillin-resistant strain, 3 h at 37°C in phosphate buffer pH 7.2, triplicate
compound,measurement,setting,value
CC(C)[C@H](NC(=O)[C@@H](NC(=O)[C@@H](N)[C@@H](C)O)C(C)C)C(=O)N[C@@H](CCCNC(=N)N)C(=O)N[C@@H](CCCNC(=N)N)C(=O)N[C@@H](CCCNC(=N)N)C(=O)NCC(=O)N[C@@H](CCCNC(=N)N)C(=O)N[C@@H](COP(=O)(O)O)C(=O)N1CCC[C@H]1C(=O)N[C@@H](CCCNC(=N)N)C(=O)N[C@@H](CCCNC(=N)N)C(=O)N[C@@H](CCCNC(=N)N)C(=O)N[C@H](C(=O)N1CCC[C@H]1C(=O)N[C@@H](COP(=O)(O)O)C(=O)N1CCC[C@H]1C(=O)N[C@@H](CCCNC(=N)N)C(=O)N[C@@H](CCCNC(=N)N)C(=O)N[C@@H](CCCNC(=N)N)C(=O)N[C@@H](CCCNC(=N)N)C(=O)N[C@@H](CO)C(=O)N[C@@H](CCC(N)=O)C(=O)N[C@@H](COP(=O)(O)O)C(=O)N1CCC[C@H]1C(=O)N[C@@H](CCCNC(=N)N)C(=O)N[C@@H](CCCNC(=N)N)C(=O)N[C@@H](CCCNC(=N)N)C(=O)N[C@@H](CCCNC(=N)N)C(=O)N[C@@H](CO)C(=O)N[C@@H](CCC(N)=O)C(=O)N[C@@H](CO)C(=O)N[C@@H](CCCNC(=N)N)C(=O)N[C@@H](CCC(=O)O)C(=O)N[C@@H](CO)C(=O)N[C@@H](CCC(N)=O)C(=O)N[C@@H](CS)C(=O)O)[C@@H](C)O [HBc155p162p170p],"Antimicrobial activity, MBC","[1]; ATCC 27853, 3 h, pH 7.2",> 32 µM
same,"Antimicrobial activity, MBC",[1]; [5],> 154.5 µg/mL
same,"Antimicrobial activity, MBC","[2]; ATCC 9027, 3 h, pH 7.2",> 32 µM
same,"Antimicrobial activity, MBC",[2]; [5],> 154.5 µg/mL
same,"Antimicrobial activity, MBC",[3]; [6],> 154.5 µg/mL
same,"Antimicrobial activity, MBC","[3]; ATCC 13884, 3 h, pH 7.2",> 32 µM
same,"Antimicrobial activity, MBC",E. coli (ATCC 25922); [6],> 154.5 µg/mL
same,"Antimicrobial activity, MBC","E. coli (ATCC 25922); ATCC 25922, 3 h, pH 7.2",> 32 µM
same,"Antimicrobial activity, MBC","S. aureus (ATCC 19636); ATCC 19636, 3 h, pH 7.2",> 32 µM
same,"Antimicrobial activity, MBC",S. aureus (ATCC 19636); [7],> 154.5 µg/mL
same,"Antimicrobial activity, MBC","S. aureus (ATCC 25923); ATCC 25923, 3 h, pH 7.2",> 32 µM
same,"Antimicrobial activity, MBC",S. aureus (ATCC 25923); [7],> 154.5 µg/mL
same,"Antimicrobial activity, MBC","S. aureus (ATCC 29213); ATCC 29213, 3 h, pH 7.2",> 32 µM
same,"Antimicrobial activity, MBC",S. aureus (ATCC 29213); [7],> 154.5 µg/mL
same,MBC for bacteria,[4],> 32 µM
